Source: ChEMBL document CHEMBL3507680, “University of Dundee, Gates Library screen for HepG2 cell viability”

Assay: Human HepG2 cell viability assay in 384 well format
Type: toxicity, cell-based
Design: dose 125 nL, time 70.5 hour; concentration not given beside the values
Settings: HepG2 cells, read-out: Inhibition

| Structure (SMILES) | cytotoxicity at 70.5 h [%] |
| --- | --- |
| Cc1nnc(NC(=O)CN(C)CC2CCCN2c2cccnn2)s1 (stereo not given) | 18.3 |
| Cc1ccc(CNC2CCN(CCc3ccncc3)CC2)s1 | 1.18 |
| Cc1cc(C)n(-c2cncc(N3CCN(C(=O)C(C)(C)C)CC3)n2)n1 | 1.04 |
| CCS(=O)(=O)NC(C(=O)NC)c1ccc(F)c(F)c1 (stereo not given) | 2.45 |
| CNC(=O)C(NC(=O)c1nccn2ccnc12)c1ccc(F)c(F)c1 (stereo not given) | -1.99 |
| CC(=O)N1CCN(C(=O)C2SCCc3sccc32)CC1 (stereo not given) | 20.4 |
| CC(CNC(=O)N1CCN(CC(F)F)CC1)Cc1cccs1 (stereo not given) | 1.43 |
| N#CCCN(C(=O)CN1CCCC1Cc1ccccc1)c1ccccc1 (stereo not given) | 0.569 |
| CCC1CCCCN1C(=O)c1ccc2[nH]nnc2c1 (stereo not given) | -2.33 |
| COc1cccc(CN(C)Cc2ccc(C#N)cc2)c1OC | -1.54 |
| Cc1cccnc1NC(=O)C1CCCN1Cc1ccccc1 (stereo not given) | 8.68 |
| CS(=O)(=O)NCCC(=O)NC1CCc2nccn2C1 (stereo not given) | -4.75 |
| CS(=O)(=O)NCC(=O)NC1CCc2nccn2C1 (stereo not given) | -7.92 |
| Cc1nc(C2CCCN2C(=O)CNS(C)(=O)=O)no1 (stereo not given) | -13.3 |
| O=C(NCCCn1cccn1)N1CCCC1c1ccncc1 (stereo not given) | 6.98 |
| CNC(=O)NC(=O)CN1CCC(c2c[nH]c3ccc(OC)cc23)CC1 | -5.75 |
| CCC(=O)NCC(=O)NCc1cc(Br)ccc1OC(F)F | -5.29 |
| CN(C)C(=O)CNC(=O)c1cc(Br)c2c(c1)OCCO2 | -3.47 |
| CCSCCC(=O)Nc1ncn(CC(=O)NCc2ccccc2)n1 | -7.93 |
| CC(Sc1nnnn1C1CCOCC1)C(=O)NC1CCCCC1 (stereo not given) | -3.49 |
| CNC(=O)Cn1cc(C#N)c(=O)c2cc(Br)ccc21 | -3.12 |
| O=C(O)c1csc(S(=O)(=O)N2CCCc3ccc(F)cc32)c1 | -0.904 |

| Structure (SMILES) | cytotoxicity at 70.5 h [%] |
| --- | --- |
| C[S+]([O-])CCCNC(=O)c1cc(Br)c2c(c1)OCCO2 (stereo not given) | -0.213 |
| CCOCCn1nnc(C2(NC(=O)c3ccccc3)CCCC2)n1 | 3.3 |
| CN(CCNC(=O)N1CCN(Cc2ccon2)CC1)c1ccccc1 | -5.16 |
| Cc1cnn(Cc2cc(F)ccc2F)c1NC(=O)C1COCCO1 (stereo not given) | -0.231 |
| NC(=O)C1CCN(Cc2cccc(NC(=O)c3ccsc3)c2)CC1 | 0.035 |
| CCc1nsc(NC2CCCn3nc(CC)nc32)n1 (stereo not given) | -5.19 |
| CCc1nc(CCNC(=O)Nc2cc(C(N)=O)sc2C)cs1 | 17 |
| CC(=O)Nc1c(C)cnn1Cc1cc(F)ccc1F | -2.07 |
| CSC(C)(C)CNC(=O)NCCC1CCN(C)CC1 | -3.38 |
| CN1CCCC(CNC(=O)N2CCN(Cc3ccon3)CC2)C1 (stereo not given) | -0.171 |
| CC(NC(=O)Cn1cccn1)c1cccnc1 (stereo not given) | -4.88 |
| COc1ccc(-n2cnnc2SCC(C)(C)O)cn1 | -3.59 |
| COc1ccc(CNC(C)c2cccc(Cl)c2)c(OC)c1OC (stereo not given) | -0.149 |
| Cc1ccc(N2CCCC(N(C)Cc3cc(C)no3)C2)nn1 (stereo not given) | -2.5 |
| CN1CCN(C(CNC(=O)CCn2cccn2)c2cccs2)CC1 (stereo not given) | -4.76 |
| Cn1cccc1C1CCCN1C(=O)NCCCn1cccn1 (stereo not given) | -7.92 |
| FC(F)(F)COCCN1CCCC(c2noc(C3CC3)n2)C1 (stereo not given) | -10.4 |
| O=C(COc1cccc(Br)c1)N1CCN(c2nccs2)CC1 | 14.3 |
| CCn1cc(NC(=O)NC2CCCc3c2cnn3CCO)cn1 (stereo not given) | -2.96 |
| COc1ncccc1C(=O)N1CCC(CNC(C)=O)CC1 | -11.5 |
| O=C(NCCNS(=O)(=O)c1ccc2c(c1)CCCC2)c1ccoc1 | -8.42 |
| Cc1ccc(S(=O)(=O)NCCNC(=O)c2ccoc2)cc1F | 11.8 |

| Structure (SMILES) | cytotoxicity at 70.5 h [%] |
| --- | --- |
| CN(C)CCn1c(=O)oc2ccc(NC(=O)c3cc(Cl)c[nH]3)cc21 | -2.49 |
| O=C(CCNS(=O)(=O)c1ccc2c(c1)CCCC2)NCc1ccoc1 | -11.5 |
| CN(C)CCn1c(=O)oc2ccc(NC(=O)CC(C)(C)C)cc21 | -6.79 |
| CCN(C)c1ccc(C(=O)N(CCOC)Cc2ccccn2)cc1 | 14.7 |
| CN(C)CCn1c(=O)oc2ccc(NC(=O)C3CCCO3)cc21 (stereo not given) | 1.22 |
| O=C(NCc1ccncc1)N(Cc1ccccc1F)C1CC1 | 13 |
| Cc1cc(C)n(CC2CCCCN2CC(=O)Nc2nncs2)n1 (stereo not given) | -7.4 |
| CN(C)C(=O)CN(C)C(=O)c1cnc(Cc2ccc(F)cc2)s1 | -0.843 |
| Cc1ccc(CNC(=O)N(Cc2ccccc2F)C2CC2)cn1 | -1.38 |
| CCC(=O)NCc1cc(Br)c(OC)c(OC)c1 | -0.621 |
| COc1ccccc1OCCN1CCCC(c2noc(C3CC3)n2)C1 (stereo not given) | -0.413 |
| Cc1oc(C(=O)O)cc1S(=O)(=O)Nc1c(F)cccc1-n1cccn1 | -0.99 |
| Cc1cnc(C(=O)N2CCN3C[C@H](OCc4cccnc4)C[C@H]3C2)cn1 | -9.39 |
| CCS(=O)(=O)N1CCC2(CC1)CN(c1ccsc1)C(=O)CO2 | -11.6 |
| CCOC[C@@H]1CCC[C@@]12CN(Cc1cccnc1)CCO2 | -5.78 |
| Cn1cc(C[C@H]2[C@H](O)CCN2C(=O)c2ccsc2)cn1 | -4.72 |
| Cn1cc(-c2cnc(N3CCOCC3)nc2)cc1C(=O)NC1CC1 | 23.6 |
| CC(C)NC(=O)[C@@H]1CN(Cc2nccs2)C[C@H]2OCC[C@H]21 | 36 |
| COCC1CN(C(=O)c2ccc(C)o2)Cc2nccn2C1 (stereo not given) | 14.4 |
| COCC(=O)N1CCN(CC2CC2)c2ncccc2C1 | 15.5 |
| CN(C)C(=O)CN1CCC2(CCCN(Cc3ccoc3)C2)C1=O (stereo not given) | -13.2 |
| CC(C)C(=O)N1CCOC2(COCCN(c3ncccn3)C2)C1 (stereo not given) | -11.8 |

| Structure (SMILES) | cytotoxicity at 70.5 h [%] |
| --- | --- |
| Cc1ccc(CN2CCC3(CCCN(S(C)(=O)=O)C3)C2)o1 (stereo not given) | -12.7 |
| CCN1CCc2nc(N3CCOCC3)nc(NC(C)C)c2C1 | -9.45 |
| Cc1ccc(CN2CCCC3(CCN(Cc4ccc(C)o4)C3)C2)o1 (stereo not given) | -11.5 |
| CN(C)CC(=O)N1CCC2(CC1)COCCN(Cc1ccncc1)C2 | -8.72 |
| CN(C)C(=O)N1CCCC2(CCN(c3ccsc3)C2=O)C1 (stereo not given) | -6.16 |
| Cc1nc(NCC2CC2)nc2c1COCC21CCNC1 (stereo not given) | 5.46 |
| CC(C)N(C)Cc1cn2c(n1)CN(C(=O)c1ccc[nH]1)CC2 | -5.19 |
| Cn1nccc1C(=O)N1CCN(C(=O)C2CC2)[C@@H]2CS(=O)(=O)C[C@@H]21 | -5.45 |
| CC(C)SCCn1ccc2[nH]c(=O)c(C#N)cc2c1=O | -8.8 |
| Cn1nc(CN2CCCN(C3CCCC3)CC2)c2c(Cl)cccc21 | -6.04 |
| COc1cc2c(cc1C1CC(=O)NCc3nc(N(C)C)sc31)CCC2 (stereo not given) | 0.498 |
| CCn1nc(C)c(CCn2ccnc2-c2cc3n(n2)CCNC3)c1C | -0.934 |
| Cc1noc(C)c1CN1C[C@@H]2COC[C@@H](C(=O)N3CCCCO3)[C@@H]2C1 | -8.21 |
| Cc1cc(CN2C[C@@H]3COC[C@H](C(=O)N4CCCCO4)[C@@H]3C2)oc1C | -11 |
| Cc1cc(CN2C[C@@H]3COC[C@@H](C(=O)N4CCCCO4)[C@@H]3C2)oc1C | -6.96 |
| Cc1ccsc1C(=O)N1CC[C@@H](N(C)C)[C@@H]1Cc1cnn(C)c1 | -11.2 |
| CN(C)[C@@H]1CCN(C(=O)Cc2cccs2)[C@H]1Cc1cnn(C)c1 | -8.18 |
| CN(C)C(=O)c1cnc2n1CCN(Cc1ccc3c(c1)OCO3)C2 | -7.97 |
| Cn1cc(-c2cnc(N3CCOCC3)nc2)cc1C(=O)NCCC#N | -9.71 |
| O=C(c1ccco1)N1CCO[C@@H]2CN(CC3CC3)CC[C@@H]2C1 | 28 |
| Cc1cc(C(=O)N2CCO[C@H]3[C@H](Oc4ccccn4)CC[C@@H]32)c(C)[nH]1 | -8.01 |
| Cc1ccc(C(=O)N2CC[C@H]3[C@@H]2CCC(=O)N3c2cccnc2)o1 | -13.5 |

| Structure (SMILES) | cytotoxicity at 70.5 h [%] |
| --- | --- |
| c1csc(CN2CCCn3nnc(COCC4CC4)c3C2)n1 | -11 |
| COCC1CN(C(=O)c2cccc(C)n2)Cc2nccn2C1 (stereo not given) | -10.2 |
| Cc1cccc(CN2CCCC3(CCN(CC(=O)N(C)C)C3=O)C2)n1 (stereo not given) | -13.1 |
| Cn1cc(CN2C[C@@H]3COC[C@]3(CNC(=O)c3ccco3)C2)cn1 | -10.1 |
| Cc1cc(CN2C[C@@H]3COC[C@]3(CNC(=O)c3ccco3)C2)no1 | -7.96 |
| COCCNC(=O)[C@H]1C[C@@H]2CCN(CCc3ccccc3)C[C@@H]2O1 | -4.71 |
| COCCC(=O)N1CC2(CCN(Cc3ccccc3Cl)CC2)C1 | 12.5 |
| CN(C)CCN1C(=O)CC[C@@H]2[C@H]1CCN2Cc1cccc(C#N)c1 | -8.56 |
| Cc1ccc(C(=O)N2CC[C@@H](N(C)C)[C@@H]2Cc2cnn(C)c2)cn1 | -10.1 |
| N#Cc1cccc(CN2CC[C@@H]3[C@@H]2CC(=O)N3Cc2ccncc2)c1 | -3.67 |
| COCCN1C[C@@H]2[C@@H](OC)CCN(S(=O)(=O)c3cccnc3)[C@@H]2C1 | -12.3 |
| Cc1cncc(C(=O)N2CCO[C@H]3[C@H](Oc4ccccn4)CC[C@@H]32)c1 | -12.4 |
| Cn1cccc1C(=O)NCc1cn2c(n1)CN(Cc1cccnc1)CC2 | -12.8 |
| CN(C)CCN1CCC2(CCCN(Cc3cccn3C)C2)C1=O (stereo not given) | -11.1 |
| O=C(C1CCCO1)N1CCC2(CC1)COCCN(Cc1ccncc1)C2 (stereo not given) | -9.52 |
| Cc1ccc2c(n1)N(CCN(C)C)CCN(C(=O)c1cscn1)C2 | -7.14 |
| c1cncc(COC[C@H]2CC[C@H]3[C@H](CCN3Cc3nccs3)O2)c1 | -0.559 |
| c1ccc(CN2CC[C@@H]3O[C@@H](COCCN4CCCC4)CC[C@@H]32)nc1 | -13.6 |
| Cc1ccc(CN2CCOC3(COCCN(Cc4ccncc4)C3)C2)o1 (stereo not given) | -13.7 |
| CN(C)CCN1CCOCC2(C1)CN(Cc1ccco1)CCO2 (stereo not given) | -17.1 |
| Cc1cc(C)cc(CN2C[C@H]3COC[C@H](N4CCN(C)CC4)[C@H]3C2)c1 | -6.19 |
| Fc1cccc(N2CCCC3(CN(Cc4cccnc4)CCO3)C2)c1 (stereo not given) | -6.89 |
